Assay results from patent US9592214B2, “Compounds for the treatment of autism in a baby child” (INSERM (INSTITUT NATIONAL DE LA SANTE ET DE LA RECHERCHE …, priority 2010, dated 2017).
Where “and” joins values, the source holds several entries; their conditions need not be identical. Equal entries are not always repeated. Entries after “also recorded” stand apart in the source; their conditions may differ.

Columns and labels:
[1] = test system: hippocampal CA3 pyramidal neurons; test: Whole-cell voltage clamp recordings of sEPSCs in offspring after maternal pretreatment; format: in vivo, rat; conditions: P15 rats, maternal SSR pretreatment (1 mg/kg in drinking water); result in words
Description: Standard whole-cell recordings were performed in coronal neocortical rat or mouse brain slices at room temperature (20-22° C.) from the soma of hippocampal CA3 neurons using an EPC-10 (HEKA Elektronik, Germany) amplifier and filtered at 3-10 kHz. The internal solution contained (in mM): 130 K-gluconate, 10 Na-gluconate, 4 NaCl, 4 MgATP, 4 phosphocreatine, 10 HEPES, and 0.3 GTP (pH 7.3 with KOH). Biocytin (final concentration 0.3-0.5%) was added to the pipette solution to label the neurons from which recordings were obtained. Neurons were visualized by using infrared DIC video microscopy. Spontaneous postsynaptic currents were recorded for […] at the reversal potentials for […] currents (−70 mV). It should be specifically noted that all recordings were made in normal ACSF (1.3 mM MgCl2). Stored data were analyzed using the Mini Analysis 6.0.3 (Synaptosoft Inc., Chapell Hill, N.C.) and Origin (MicroCal, Northampton, Mass.) software. To minimize potential sampling bias, the pups from at least three deliveries for each condition were studied. Data are expressed as mean±S.E.M.
Bumetanide (10 μM), Oxytocin (1 μM) and Isoguvacine (2 μM) were directly added to the perfusion solutions. Bumetanide pretreatment (2-2.5 mg/kg) was given to the dams in drinking water. All drugs used were purchased from Sigma. […]

[2] = test system: hippocampal CA3 pyramidal cells; test: DFGABA in hippocampal CA3 pyramidal cells of offspring after in utero VPA / maternal bumetanide pretreatment; format: in vivo, rat; conditions: VPA rats (dams 600 mg/kg VPA i.p. at E12)
Description: (§1) Time-mated female Wistar rats at gestational day E7-8 were housed under standard laboratory conditions. The in utero valproic acid (VPA) rodent model of autism spectrum disorders has been previously described in detail. Briefly, the sodium salt of VPA (Sigma-Aldrich) was dissolved in physiological saline solution to a concentration of 300 mg/ml. Pregnant rats received a single intra-peritoneal dose of 600 mg/kg on gestational day 12 (E12). The control dams received a single similar volume injection of saline at the same gestational time-point. Dams were housed individually and allowed to raise their own litters. The offspring were used for experiments on embryonic day 20 (E20) and postnatal (P) days 0, 2, 4, 7, 15 and 30 (after being weaned at P23). Experiments were carried out on offspring of either sex.
(§2) Experiments were performed on fetuses and neonatal rat pups. We removed E20 rats from deeply anesthetized dams [subcutaneous injection of a mixture of xylazine (Rompun 2%; used at 0.05%) and ketamine (Imalgene 1000 used at 50 g/l)]. Hippocampal slices ([…] thick) were prepared using a Microm tissue slicer (International GmbH, Germany) as described previously (Tyzio et al. 2006 Science 314, 1788; Tyzio et al, 2008, Eur J. Neurosci. 27(10):2515-28). Slices were kept in oxygenated (95% O2/5% CO2) artificial cerebrospinal fluid (ACSF) of the following composition (in mM): NaCl 126, KCl 3.5, CaCl2 2.0, MgCl2 1.3, NaHCO3 25, NaH2PO4 1.2 and glucose 11 (pH 7.4) at room temperature (20-22° C.) at least 1 hour before use.
For recordings, slices were placed into a conventional fully submerged chamber superfused with ACSF at a rate of 2-3 ml/min at room temperature. Patch clamp recordings from visually identified CA3 pyramidal cells in cell-attached configuration were performed using EPC-10 amplifier (HEKA Elektronik Dr. Schulze GmbH, Lambrecht/Pfalz, Germany). Patch pipette solution for recordings of single GABAA channels contained (in mM): NaCl 120, KCl 5, TEA-Cl 20, 4-aminopyridine 5, CaCl2 0.1, MgCl2 10, glucose 10, Hepes-NaOH 10 buffered to pH 7.2-7.3 and GABA 2 μM. Analysis of currents through single channels and current-voltage relationships were performed using Clampfit 9.2 (Axon Instruments, Union City, Calif.). Recordings were digitized (10 kHz) online with Digidata-1200 interface card (Axon Instruments, Union City, Calif.) and analyzed offline with Axon package, MiniAnalysis (S (Synaptsoft, Decatur, Ga.), and Origin (Microcal Software, Northampton, Mass.).
(§3) Bumetanide (10 μM), Oxytocin (1 μM) and Isoguvacine (2 μM) were directly added to the perfusion solutions. Bumetanide pretreatment (2-2.5 mg/kg) was given to the dams in drinking water. All drugs used were purchased from Sigma. SSR126768A (Sanofi-Synthelabo) pretreatment (1 mg/kg) was given to the dams in drinking water.
If the polarity of GABA actions at delivery produces long terms effects in offsprings, then restoring low [Cl^−]i and inhibitory GABA at delivery might restore physiological parameters in juvenile rodents. To test this hypothesis, pregnant females were treated orally 1 day before delivery with bumetanide (2-2.5 mg/kg in drinking water) and juvenile offspring neurons recorded at P15. […] In VPA rats, GABAergic inputs are excitatory and contribute to hyperexcitability of the network. Bumetanide decreases [Cl^−]i and consequently reduces contribution of excitatory GABAergic inputs in the overall network activity.

[3] = test system: Valproate rat model of autism; test: Isolation-induced ultrasonic vocalizations; format: in vivo; conditions: P4 VPA rats
Description: as §1
To induce ultrasonic vocalizations, […], and were placed into an isolation box (23×28×18 cm) located inside a sound attenuating isolation cubicle (54×57×41 cm; Coulbourn Instruments, Allentown, Pa., USA), and evaluated for ultrasonic vocalizations during a three minutes test. An ultrasound microphone (Avisoft UltraSoundGate Condenser microphone capsule CM16/CMPA, Avisoft Bioacoustics, Berlin, Germany), placed in the roof of the box, was sensitive to frequencies of 10 to 250 kHz. Vocalizations were recorded using the Avisoft Recorder software (version 4.2) with a sampling rate of 250 kHz in 16 bit format. For acoustical analysis, recordings were transferred to SASLab Pro (version 5.2; Avisoft Bioacoustics) and a fast Fourier transformation was conducted (512 FFT-length, 100% frame, Hamming window and 75% time window overlap). The accuracy of call detection was verified manually by an educated user. A Pearson correlation coefficient was computed to assess the relationship between Automatic and Manual analysis. There was 0.99 correlation between the two variables.
as §3

[4] = test system: Valproate rat model of autism; test: In vivo EEG recordings in the CA3 area of hippocampus of head-restrained rats; conditions: VPA rats P13-15
Description: as §1
Head-fixed rat pups of age P13-P15 were prepared for extracellular recording under isoflurane anesthesia. The skin and periosteum were removed from the skull, which was then covered by glue and dental cement except for a 4-9 mm^2 window above the somatosensory cortex from one or two hemispheres for the silicon probe penetration (4.0-4.2 mm lateral to midline and 2.2-2.5 mm caudal to bregma) and for the reference electrode (1.0-1.5 mm lateral to midline and 6.0-6.5 mm caudal to bregma). The rat was positioned in the stereotaxic apparatus. A 1 mm-diameter burr hole was drilled in the skull; the dura was cut and removed. Recordings were made 1 h after recovery from anesthesia. Pups were kept restrained for <3 h and were closely monitored for signs of stress and to ensure that they spent a normal proportion of their time sleeping. The outside temperature was maintained between 35 and 36° C. The animals were kept in low-light conditions throughout all experiments. 16-site linear silicone probe (NeuroNexus Technologies) coupled to a direct-current amplifier (Molecular Devices) and dunked previously in fluorescent dye (DiI, Invitrogen) was slowly penetrated via the hole at […] depth under the angle 30° in the coronal plane. EEGs were recorded during 2 hours, using a 16-channel amplifier (A-M System, Inc.) and digitized at 5 kHz using Axoscope software (Molecular Deviced). Recordings were amplified and high-pass filtered at 0.3 Hz in Axoscope. Silicone probe location was verified postmortem via dye localization. To quantify the frequency band integral power the traces were band-pass filtered at frequency bands […]) θ-(4-7 Hz), α-(7-12 Hz), β-(12-25 Hz), Low γ-(25-60 Hz), High γ-(60-120 Hz) and Fast oscillations-(120-500 Hz)). Fast Fourier Transform (FFT) was applied with Clampfit (Molecular Devices). Integrals of FFT power spectra were taken and averaged with OriginPro (OriginLab Corporation).
as §3

[5] = test system: hippocampal slices; test: Effects of isoguvacine on spike frequency, extracellular field potential recordings in hippocampal slices; format: cell-based, rat; conditions: P15
Description: as §2
Extracellular field potentials and multi-unit activity (MUA) recordings Recording were made in the hippocampal slices using tungsten wire electrodes (diameter: 50 μm, California Fine Wire, Grover Beach, Calif.) and a low-noise multichannel DAM-8A amplifiers (WPI, GB; […]; gain: ×1000). The signals were digitized using an analogue-to-digital converter (Digidata 1440A, Axon Instruments, USA). pCLAMP 10.1, Clampfit 10.1 (Axon Instruments, USA), MiniAnalysis 6.03 (Synaptosoft, Decatur, Calif.) and Origin 7.5 (Microcal Software, USA) programs were used for the acquisition and analysis of the synaptic activities. Sampling interval per signal was 100 microseconds (10 kHz).
as §3

[6] = test system: CA3 pyramidal cells; test: Effect of isoguvacine on spontaneous spiking, cell-attached recordings; format: cell-based, rat; conditions: result in words
Description: as §2
For recordings, slices were placed into a conventional fully submerged chamber superfused with ACSF at a rate of 2-3 ml/min at room temperature. Patch clamp recordings from visually identified CA3 pyramidal cells in cell-attached configuration were performed using EPC-10 amplifier (HEKA Elektronik Dr. Schulze GmbH, Lambrecht/Pfalz, Germany). […] Recordings were digitized (10 kHz) online with Digidata-1200 interface card (Axon Instruments, Union City, Calif.) and analyzed offline with Axon package, MiniAnalysis (S (Synaptsoft, Decatur, Ga.), and Origin (Microcal Software, Northampton, Mass.). […]

CCN(Cc1cccnc1)C(=O)c1ccc(Cl)c([C@]2(C)C(=O)N(Cc3ccc(OC)cc3OC)c3ccc(Cl)cc32)c1 [SSR]
spontaneous activity of neuronal networks (sEPSCs) [1]: increases

CCCC(CCC)C(=O)O [VPA, valproic acid]
DFGABA (mV), mean ± S.E. ([2]; age E20): 8.5 ± 0.6 (n = 9) mV | DFGABA (mV), mean ± S.E. ([2]; age P0): 8.2 ± 1.3 (n = 29) mV | DFGABA (mV), mean ± S.E. ([2]; age P2): 11.7 ± 1.4 (n = 24) mV | DFGABA (mV), mean ± S.E. ([2]; age P7): 9.7 ± 1.1 (n = 26) mV | DFGABA (mV), mean ± S.E. ([2]; age P15): 10.2±1.0 mV and 10.2 ± 1 (n = 25 mV and 10.2 ± 1.0 (n = 25) mV | DFGABA (mV), mean ± S.E. ([2]; age P30): 8.7 ± 0.8 (n = 25) mV | Number of calls, isolation-induced USVs mean ± S.E.M [3]: 1 ± 0.5 (n = 26) | Total duration of calls, isolation-induced USVs mean ± S.E.M [3]: 0.04 ± 0.02 (n = 26) | Integral power spectra of EEG recordings, mean ± S.E.M. ([4]; frequency band 0.5-4 Hz): 164.05 ± 39.44 | Integral power spectra of EEG recordings, mean ± S.E.M. ([4]; frequency band 4-7 Hz): 42.01 ± 12.03 | Integral power spectra of EEG recordings, mean ± S.E.M. ([4]; frequency band 7-12 Hz): 16.52 ± 4.32 | Integral power spectra of EEG recordings, mean ± S.E.M. ([4]; frequency band 12-25 Hz): 16.56 ± 4.78 | Integral power spectra of EEG recordings, mean ± S.E.M. ([4]; frequency band 25-60 Hz): 2.41 ± 0.62 | Integral power spectra of EEG recordings, mean ± S.E.M. ([4]; frequency band 60-120 Hz): 0.74 ± 0.17 | Integral power spectra of EEG recordings, mean ± S.E.M. ([4]; frequency band 120-500 Hz): 1.83 ± 0.42

O=C(O)C1=CCNCC1 [isoguvacine]
Effects of isoguvacine on frequency of spikes in extracellular recordings (% of control), mean ± S.E. ([5]; VPA rats): 213.5 ± 16.3 (n = 6), P < 0.001 % of control | Effects of isoguvacine on frequency of spikes in extracellular recordings (% of control), mean ± S.E. ([5]; VPA rats, listed as Isoguvacine): 213.5±16.3 % of control | Effects of isoguvacine on frequency of spikes in extracellular recordings (% of control), mean ± S.E. ([5]; control rats): 38.9 ± 5.1 (n = 3), P < 0.001 % of control | Effects of isoguvacine on frequency of spikes in extracellular recordings (% of control), mean ± S.E. ([5]; control rats, listed as Isoguvacine): 38.9±5.1 % of control | spike frequency in cell-attached recordings ([6]; isoguvacine 2 μM, naive neurons, P0): inhibited or did not affected | spike frequency in cell-attached recordings ([6]; isoguvacine, VPA neurons, P0 and P15): excitatory action; also recorded: increased
